From patent publication US11130769B2 (Prelude Therapeutics Incorporated, priority 2018, dated 2021)

Key:
H929 cells = assay: Cell viability assay (H929 10 FBS); format: cell-based; settings: Homo sapiens, NCI-H929, 24 hours, read-out: H929_10FBS IC50
Procedure, shortened: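 H929 cells, 4000/well, in RPMI 1640 with 10% FBS, sodium pyruvate, HEPES and glucose were exposed to compound 24 h at 37 °C. Viability read as luminescence after 30-60 min at RT with CellTiter-Glo or ATPlite 1 Step.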

MCL-1 = MCL-1 (Homo sapiens (Human), UniProt Q07820); assay: Cell free Mcl-1:Bim affinity assay (fluorescence polarization competition); format: binding; settings: 15 nM MCL-1, 5 nM FITC-Bim, 1 hour at room temperature; class symbols; read-out: BIM_Ki
Sequence of MCL-1 (Q07820 whole entry): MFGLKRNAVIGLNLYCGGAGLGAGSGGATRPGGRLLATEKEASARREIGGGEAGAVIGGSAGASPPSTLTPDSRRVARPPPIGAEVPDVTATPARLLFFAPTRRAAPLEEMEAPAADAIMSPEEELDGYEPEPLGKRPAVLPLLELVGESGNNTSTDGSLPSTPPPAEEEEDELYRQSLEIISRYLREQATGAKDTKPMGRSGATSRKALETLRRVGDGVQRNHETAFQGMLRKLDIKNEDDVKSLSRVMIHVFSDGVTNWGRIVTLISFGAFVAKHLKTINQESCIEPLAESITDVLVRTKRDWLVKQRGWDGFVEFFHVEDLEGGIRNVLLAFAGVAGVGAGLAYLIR
Procedure, shortened: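 Compounds competed with FITC-labelled Bim peptide (5 nM) for MCL-1 (15 nM) in HEPES/NaCl buffer with 1% DMSO, 1 h at room temperature. Fluorescence polarization (535 nm emission) gave % inhibition versus DMSO and positive controls; IC50 from 10-point curves, converted to Ki by the Nikolovska-Coleska equation.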

Row | IC50 (H929 cells) [nM] | Ki (MCL-1) [nM] | Compound
1 | < 500 | < 1 | CC(C)NC(=O)O[C@H]1/C=C/CN(C)C(C)(C)C(=O)NS(=O)(=O)c2ccc3c(c2)N(C[C@@H]2CC[C@H]21)C[C@@]1(CCCc2cc(Cl)ccc21)CO3 [Example 207, [(3R,6R,7S,8E,22S)-6′-Chloro-11,12,12-trimethyl-13,15,15-trioxo-spiro[20-oxa-15-thia-1,11,14-triazatetracyclo[14.7.2.03,6.019,24]pentacosa-8,16,18,24-tetraene-22,1′-tetralin]-7-yl] N-isopropylcarbamate]
2 | < 500 | < 1 | CN(C)C(=O)O[C@H]1/C=C/CNC(C)(C)C(=O)NS(=O)(=O)c2ccc3c(c2)N(C[C@@H]2CC[C@H]21)C[C@@]1(CCCc2cc(Cl)ccc21)CO3 [Example 209, [(3R,6R,7S,8E,22S)-6′-Chloro-12,12-dimethyl-13,15,15-trioxo-spiro[20-oxa-15-thia-1,11,14-triazatetracyclo[14.7.2.03,6.019,24]pentacosa-8,16,18,24-tetraene-22,1′-tetralin]-7-yl] N,N-dimethylcarbamate]
3 | < 500 | < 1 | CCN1C/C=C/[C@H](OC(=O)N(C)C)[C@@H]2CC[C@H]2CN2C[C@@]3(CCCc4cc(Cl)ccc43)COc3ccc(cc32)S(=O)(=O)NC(=O)C1(C)C [Example 210, [(3R,6R,7S,8E,22S)-6′-Chloro-11-ethyl-12,12-dimethyl-13,15,15-trioxo-spiro[20-oxa-15-thia-1,11,14-triazatetracyclo[14.7.2.03,6.019,24]pentacosa-8,16,18,24-tetraene-22,1′-tetralin]-7-yl] N,N-dimethylcarbamate]
4 | < 500 | < 1 | CCCN1C/C=C/[C@H](OC(=O)N(C)C)[C@@H]2CC[C@H]2CN2C[C@@]3(CCCc4cc(Cl)ccc43)COc3ccc(cc32)S(=O)(=O)NC(=O)C1(C)C [Example 211, [(3R,6R,7S,8E,22S)-6′-Chloro-12,12-dimethyl-13,15,15-trioxo-11-propyl-spiro[20-oxa-15-thia-1,11,14-triazatetracyclo[14.7.2.03,6.019,24]pentacosa-8,16,18,24-tetraene-22,1′-tetralin]-7-yl] N,N-dimethylcarbamate]
5 | < 500 | < 1 | CN1C/C=C/[C@H](OC(=O)N[C@H]2CCOC2)[C@@H]2CC[C@H]2CN2C[C@@]3(CCCc4cc(Cl)ccc43)COc3ccc(cc32)S(=O)(=O)NC(=O)C1(C)C [Example 212, [(3R,6R,7S,8E,22S)-6′-Chloro-11,12,12-trimethyl-13,15,15-trioxo-spiro[20-oxa-15-thia-1,11,14-triazatetracyclo[14.7.2.03,6.019,24]pentacosa-8,16,18,24-tetraene-22,1′-tetralin]-7-yl] N-[(3S)-tetrahydrofuran-3-yl]carbamate]
6 | < 500 | < 1 | CN(C)CCN(C)C(=O)O[C@H]1/C=C/CN(C)C(C)(C)C(=O)NS(=O)(=O)c2ccc3c(c2)N(C[C@@H]2CC[C@H]21)C[C@@]1(CCCc2cc(Cl)ccc21)CO3 [Example 213, [(3R,6R,7S,8E,22S)-6′-Chloro-11,12,12-trimethyl-13,15,15-trioxo-spiro[20-oxa-15-thia-1,11,14-triazatetracyclo[14.7.2.03,6.019,24]pentacosa-8,16,18,24-tetraene-22,1′-tetralin]-7-yl] N-[2-(dimethylamino)ethyl]-N-methyl-carbamate]
7 | < 500 | < 1 | CN(C)C1CN(C(=O)O[C@H]2/C=C/CN(C)C(C)(C)C(=O)NS(=O)(=O)c3ccc4c(c3)N(C[C@@H]3CC[C@H]32)C[C@@]2(CCCc3cc(Cl)ccc32)CO4)C1 [Example 214, [(3R,6R,7S,8E,22S)-6′-Chloro-11,12,12-trimethyl-13,15,15-trioxo-spiro[20-oxa-15-thia-1,11,14-triazatetracyclo[14.7.2.03,6.019,24]pentacosa-8,16,18,24-tetraene-22,1′-tetralin]-7-yl] 3-(dimethylamino)azetidine-1-carboxylate]

The remaining lines, values behind:

Row | Compound | IC50 (H929 cells) [nM] | Ki (MCL-1) [nM]
8 | CO[C@H]1CCN(C(=O)O[C@H]2/C=C/COC(C)(C)C(=O)NS(=O)(=O)c3ccc4c(c3)N(C[C@@H]3CC[C@H]32)C[C@@]2(CCCc3cc(Cl)ccc32)CO4)C1 [Example 195, [(3R,6R,7S,8E,22S)-6′-Chloro-12,12-dimethyl-13,15,15-trioxo-spiro[11,20-dioxa-15-thia-1,14-diazatetracyclo[14.7.2.03,6.019,24]pentacosa-8,16,18,24-tetraene-22,1′-tetralin]-7-yl] (3S)-3-methoxypyrrolidine-1-carboxylate] | < 500 | < 1
9 | C[C@@H]1NC(=O)COC[C@@H]2CC[C@H]2CN2C[C@@]3(CCCc4cc(Cl)ccc43)COc3ccc(cc32)S(=O)(=O)NC1=O [Example 197, (3R,6R,12S,22S)-6′-Chloro-12-methyl-15,15-dioxo-spiro[8,20-dioxa-15-thia-1,11,14-triazatetracyclo[14.7.2.0˜3,6.0˜19,24]pentacosa-16,18,24-triene-22,1′-tetralin]-10,13-dione] | > 1000 | 1 to 100
10 | CN(C)C(=O)O[C@@H]1/C=C/CNC(C)(C)C(=O)NS(=O)(=O)c2ccc3c(c2)N(C[C@@H]2CC[C@H]21)C[C@@]1(CCCc2cc(Cl)ccc21)CO3 [Example 198, [(3R,6R,7R,8E,22S)-6′-Chloro-12,12-dimethyl-13,15,15-trioxo-spiro[20-oxa-15-thia-1,11,14-triazatetracyclo[14.7.2.0˜3,6.0˜19,24]pentacosa-8,16,18,24-tetraene-22,1′-tetralin]-7-yl] N,N-dimethylcarbamate] | < 500 | < 1
11 | CN1C/C=C/[C@H](OC(=O)N2CCOCC2)[C@@H]2CC[C@H]2CN2C[C@@]3(CCCc4cc(Cl)ccc43)COc3ccc(cc32)S(=O)(=O)NC(=O)C1(C)C [Example 199, [(3R,6R,7S,8E,22S)-6′-Chloro-11,12,12-trimethyl-13,15,15-trioxo-spiro[20-oxa-15-thia-1,11,14-triazatetracyclo[14.7.2.03,6.019,24]pentacosa-8,16,18,24-tetraene-22,1′-tetralin]-7-yl]morpholine-4-carboxylate] | < 500 | < 1
12 | CN(C)C(=O)O[C@@H]1/C=C/CN(C)C(C)(C)C(=O)NS(=O)(=O)c2ccc3c(c2)N(C[C@@H]2CC[C@H]21)C[C@@]1(CCCc2cc(Cl)ccc21)CO3 [Example 200, [(3R,6R,7R,8E,22S)-6′-Chloro-11,12,12-trimethyl-13,15,15-trioxo-spiro[20-oxa-15-thia-1,11,14-triazatetracyclo[14.7.2.03,6.019,24]pentacosa-8,16,18,24-tetraene-22,1′-tetralin]-7-yl] N,N-dimethylcarbamate] | < 500 | 1 to 100
13 | CN1C/C=C/[C@H](OC(=O)NC2CCC2)[C@@H]2CC[C@H]2CN2C[C@@]3(CCCc4cc(Cl)ccc43)COc3ccc(cc32)S(=O)(=O)NC(=O)C1(C)C [Example 201, [(3R,6R,7S,8E,22S)-6′-Chloro-11,12,12-trimethyl-13,15,15-trioxo-spiro[20-oxa-15-thia-1,11,14-triazatetracyclo[14.7.2.03,6.019,24]pentacosa-8,16,18,24-tetraene-22,1′-tetralin]-7-yl] N-cyclobutylcarbamate] | < 500 | < 1
14 | CN(C(=O)O[C@H]1/C=C/COC(C)(C)C(=O)NS(=O)(=O)c2ccc3c(c2)N(C[C@@H]2CC[C@H]21)C[C@@]1(CCCc2cc(Cl)ccc21)CO3)[C@H]1CCOC1 [Example 202, [(3R,6R,7S,8E,22S)-6′-Chloro-12,12-dimethyl-13,15,15-trioxo-spiro[11,20-dioxa-15-thia-1,14-diazatetracyclo[14.7.2.03,6.019,24]pentacosa-8,16,18,24-tetraene-22,1′-tetralin]-7-yl] N-methyl-N-[(3S)-tetrahydrofuran-3-yl]carbamate] | < 500 | < 1
15 | CNC(=O)O[C@H]1/C=C/CN(C)C(C)(C)C(=O)NS(=O)(=O)c2ccc3c(c2)N(C[C@@H]2CC[C@H]21)C[C@@]1(CCCc2cc(Cl)ccc21)CO3 [Example 203, [(3R,6R,7S,8E,22S)-6′-Chloro-11,12,12-trimethyl-13,15,15-trioxo-spiro[20-oxa-15-thia-1,11,14-triazatetracyclo[14.7.2.03,6.019,24]pentacosa-8,16,18,24-tetraene-22,1′-tetralin]-7-yl] N-methylcarbamate] | < 500 | < 1
16 | CCNC(=O)O[C@H]1/C=C/CN(C)C(C)(C)C(=O)NS(=O)(=O)c2ccc3c(c2)N(C[C@@H]2CC[C@H]21)C[C@@]1(CCCc2cc(Cl)ccc21)CO3 [Example 204, [(3R,6R,7S,8E,22S)-6′-Chloro-11,12,12-trimethyl-13,15,15-trioxo-spiro[20-oxa-15-thia-1,11,14-triazatetracyclo[14.7.2.03,6.019,24]pentacosa-8,16,18,24-tetraene-22,1′-tetralin]-7-yl] N-ethylcarbamate] | < 500 | < 1
17 | CN1C/C=C/[C@H](OC(=O)NCC2CC2)[C@@H]2CC[C@H]2CN2C[C@@]3(CCCc4cc(Cl)ccc43)COc3ccc(cc32)S(=O)(=O)NC(=O)C1(C)C [Example 205, [(3R,6R,7S,8E,22S)-6′-Chloro-11,12,12-trimethyl-13,15,15-trioxo-spiro[20-oxa-15-thia-1,11,14-triazatetracyclo[14.7.2.03,6.019,24]pentacosa-8,16,18,24-tetraene-22,1′-tetralin]-7-yl] N-(cyclopropylmethyl)carbamate] | < 500 | 1 to 100
